We go through four molecules from patent US20180092840A1, “ULTRASOUND-ENHANCED DRUG DELIVERY FOR TREATMENT OF ONYCHOMYCOSIS” (The George Washington University, priority 2016, published 2018).

One series has as its system onychomycosis. The following applies: cited from earlier work; for side effects: onychomycosis treatment.
Series [1] is described as follows: diffusion cell test (Franz Diffusion Cell, spectrophotometry) of blue dye through nail with ultrasound. The class given is in vitro ADME, pig. The following applies: 5 min sonication, 60 min total, n=6. As for the experimental part: A second set of experiments was conducted utilizing a diffusion cell system 500, as set forth in FIG. 5 (hereinafter, the “diffusion cell test”). As described more fully below, a diffusion cell 502 having a receiving compartment 504 containing a stir bar 506 were positioned at the bottom of the system 500. A sampling port 508 projected from a side of the receiving compartment 504 to collect liquids contained therein. A nail adapter 510 fitted with a nail 512 was positioned above the diffusion cell 502. A lid adapter 514 was positioned above the nail 512. The lid adapter 514 contained a donor compartment 516, which held the blue dye, as well as a thermocouple 518 and a transducer 520. The parameters of the diffusion cell test were the same as set forth above with respect to Example 1, except in this example, spectrophotometry and a Franz Diffusion Cell were used to measure how much of the blue dye compound permeated all the way through the nail from a donor compartment (filled with the dye) to a receiver compartment, using dilution at different ultrasound parameters.
The diffusion cell (commercially available from PermeGear, Inc., Hellertown, Pa., USA) was fit with a custom-made nail adapter to avoid leakage of dye around the nail and a lid adapter so that 50 mL of dye and the transducer could easily fit above the nail adapter, as illustrated in FIG. 5. The nail adapter was made from plastic that screws together tightly and secures to the diffusion cell using small metal clamps. The lid adapter was made from a plastic beaker and secured onto the top of the nail adapter using epoxy. During the experimentation, the receiver compartment of the diffusion cell was filled with saline solution and a magnetic stirring bar which was spun at 450 RPM to ensure the compartment was fully mixed. The entire diffusion cell was placed in a water bath at 37° C. The donor compartment was then filled with 50 mL of the previously-described blue dye. Before being placed in the donor compartment, the blue dye was maintained at room temperature for at least 20 minutes. The transducer was placed 85 mm from the nail (as opposed to 45 mm from the nail in the luminosity experiment). The nail was then sonicated for five (5) minutes.
After sonication, the diffusion cell experiment continued for another 55 minutes to allow the dye to travel through the entirety of the nail. The Control nails were not treated with any ultrasound and were exposed to the dye solution for 60 minutes. […]
After the completion of the experiment, 2 mL of solution was collected from the receiving compartment of the diffusion cell and its absorption was measured with the spectrophotometer (commercially available as UVmini-1240 from Shimadzu Scientific Instruments of Columbia, Md., USA) using saline as a base. […]

With `Cc1cc(C2CCCCC2)n(O)c(=O)c1` [ciclopirox], in the series on onychomycosis (nail polish form, after six (6) months of daily application), the cure rate is recorded as 36%. In addition, the side effects result in the series with onychomycosis is “only non-serious, infrequently reported side effects”.

Turning to `C=C1CCN([C@H](C)[C@](O)(Cn2cncn2)c2ccc(F)cc2F)CC1` [Efinaconazole], the “cure rate compared with Ciclopirox” value with onychomycosis (topical, applied for up to ten (10) months) is given as “slightly better cure rate”.

With `CN(C/C=C/C#CC(C)(C)C)Cc1cccc2ccccc12` [Terbinafine], in the series with onychomycosis, the side effects entry was “elevated levels of liver enzymes and hepatitis”. In the series on onychomycosis (orally prescribed), the overall failure rate entry is listed as “greater than 30%” and the time to work is recorded as greater than 6 months.

For `CCN(Cc1cccc(S(=O)(=O)[O-])c1)c1ccc(C(=C2C=CC(=[N+](CC)Cc3cccc(S(=O)(=O)[O-])c3)C=C2)c2ccccc2S(=O)(=O)[O-])cc1.[Na+].[Na+]` [blue dye, FD&C Blue No. 1—Brilliant Blue FCF, E133], the “increase in nail permeability vs Control” value in series [1] (1 MHz) worked out at 70.3%; in series [1] (400 kHz), 26.7%; in series [1] (600 kHz) it was 19.5%; in series [1] (800 kHz), 44.5%.
